# Paper PMC10584170, “Machine learning-based phenotypic imaging to characterise the targetable biology of Plasmodium falciparum male gametocytes for the development of transmission-blocking antimalarials” (PLOS Pathogens, 2023)
# Legend:
# [1] = test system: P. falciparum male gametocytes; assay: P. falciparum Dual Gamete Formation Assay (PfDGFA), male readout (exflagellation); type: cell-based, Plasmodium falciparum NF54; conditions: for % inhibition male (individual replicates) R1: replicate R1; for % inhibition male (individual replicates) R3: replicate R3; for % inhibition male (individual replicates) R4: replicate R4; for Average inhibition male (%): average of replicates; for Activity: hit = >50% inhibition in male or female readout in at least 3 replicates, 0 = no class assigned
# How it was run: (§1)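 Mature NF54 gametocytes (day 14) were incubated with compound for 24 h at 37°C under 1% O2/3% CO2, then triggered with xanthurenic acid ookinete medium plus Cy3-anti-Pfs25. Exflagellation was imaged by brightfield; after a further 24 h at 28°C, Pfs25-positive female gametes were imaged by fluorescence and counted by automated image analysis.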
# [2] = test system: P. falciparum female gametocytes; assay: P. falciparum Dual Gamete Formation Assay (PfDGFA), female readout (Pfs25-positive female gametes); type: cell-based, Plasmodium falciparum NF54; conditions: for % inhibition female (individual replicates) R1: replicate R1; for % inhibition female (individual replicates) R3: replicate R3; for % inhibition female (individual replicates) R4: replicate R4; for Average inhibition female (%): average of replicates
# How it was run: as §1
# [3] = PfDGFA at 2µM, 24h preincubation with gametocytes prior to induction of gametogenesis
# [4] = PfDGFA at 2µM, 24h preincubation
# [5] = PfDGFA at 2µM, 24h preincubation with gametocytes
# [6] = number of replicates with >50% inhibition in the male readout, 2µM
# [7] = number of replicates with >50% inhibition in the female readout, 2µM
# [8] = 2µM, 24h preincubation with gametocytes prior to induction of gametogenesis
# [9] = 2µM, 24h preincubation, number of replicates with >50% inhibition in the male readout
# [10] = 2µM, 24h preincubation, number of replicates with >50% inhibition in the female readout
# [11] = 2µM, 24h preincubation, hits selected on >50% inhibition in the male readout across replicates
# [12] = 2µM, 24h preincubation, hits selected on >50% inhibition in the female readout across replicates
compound,measurement,setting,value
CCc1cc2c3c(N)nc(N)nc3ccc2n1C(C)(C)C [TCMDC-137306],% inhibition male (individual replicates) R1,[1]; [3],25.5%
same,% inhibition male (individual replicates) R3,[1]; [3],27.4%
same,% inhibition male (individual replicates) R4,[1]; [3],15.6%
same,Average inhibition male (%),[1]; [4],21.0%
same,% inhibition female (individual replicates) R1,[2]; [3],-1.8%
same,% inhibition female (individual replicates) R3,[2]; [3],-28.9%
same,% inhibition female (individual replicates) R4,[2]; [3],1.8%
same,Average inhibition female (%),[2]; [4],-7.8%
CC(C)n1c(C(C)(C)C)cc2c3c(N)nc(N)nc3ccc21 [TCMDC-137311],Average inhibition male (%),[1]; [5],66.3%
same,% inhibition male (individual replicates) R1,[1]; [5],58.8%
same,% inhibition male (individual replicates) R3,[1]; [5],70.2%
same,% inhibition male (individual replicates) R4,[1]; [5],54.6%
same,HitlevelM,[1]; [6],4
same,Average inhibition female (%),[2]; [5],-0.8%
same,% inhibition female (individual replicates) R1,[2]; [5],-8.1%
same,% inhibition female (individual replicates) R3,[2]; [5],21.9%
same,% inhibition female (individual replicates) R4,[2]; [5],-9.1%
same,HitlevelF,[2]; [7],0
COc1ccc2c(c1CCNCCCCNCCc1c(OC)ccc3c1CCCC3)CCCC2.CS(=O)(=O)O [TCMDC-137324],Average inhibition male (%),[1]; [5],81.7%
same,% inhibition male (individual replicates) R1,[1]; [5],91.2%
same,% inhibition male (individual replicates) R3,[1]; [5],86.5%
same,% inhibition male (individual replicates) R4,[1]; [5],98.0%
same,HitlevelM,[1]; [6],4
same,Average inhibition female (%),[2]; [5],79.4%
same,% inhibition female (individual replicates) R1,[2]; [5],79.9%
same,% inhibition female (individual replicates) R3,[2]; [5],84.0%
same,% inhibition female (individual replicates) R4,[2]; [5],85.5%
same,HitlevelF,[2]; [7],4
CC(C(=O)OCCOCn1cnc2c(=O)[nH]c(N)nc21)N(C)C(=O)OC(C)(C)C (centres unmarked) [TCMDC-137343],% inhibition male (individual replicates) R1,[1]; [3],2.6%
same,% inhibition male (individual replicates) R4,[1]; [3],-43.6%
same,Average inhibition male (%),[1]; [4],-14.6%
same,% inhibition female (individual replicates) R1,[2]; [3],1.2%
same,% inhibition female (individual replicates) R3,[2]; [3],-8.6%
same,% inhibition female (individual replicates) R4,[2]; [3],4.1%
same,Average inhibition female (%),[2]; [4],-0.55%
Cl.c1ccc2c(Nc3ccc(Cc4ccc(Nc5c6ccccc6nc6ccccc56)cc4)cc3)c3ccccc3nc2c1 [TCMDC-137354],Average inhibition male (%),[1]; [8],52.9%
same,% inhibition male (individual replicates) R1,[1]; [8],49.4%
same,% inhibition male (individual replicates) R3,[1]; [8],55.5%
same,% inhibition male (individual replicates) R4,[1]; [8],71.3%
same,HitlevelM,[1]; [9],2
same,Average inhibition female (%),[2]; [8],87.8%
same,% inhibition female (individual replicates) R1,[2]; [8],83.3%
same,% inhibition female (individual replicates) R3,[2]; [8],91.0%
same,% inhibition female (individual replicates) R4,[2]; [8],96.5%
same,HitlevelF,[2]; [10],4
Cl.c1ccc2c(Nc3ccc(OCCOCCOc4ccc(Nc5c6ccccc6nc6ccccc56)cc4)cc3)c3ccccc3nc2c1 [TCMDC-137355],Average inhibition male (%),[1]; [8],37.2%
same,% inhibition male (individual replicates) R1,[1]; [8],36.9%
same,% inhibition male (individual replicates) R3,[1]; [8],-1.4%
same,% inhibition male (individual replicates) R4,[1]; [8],40.2%
same,HitlevelM,[1]; [9],1
same,Average inhibition female (%),[2]; [8],29.1%
same,% inhibition female (individual replicates) R1,[2]; [8],27.7%
same,% inhibition female (individual replicates) R3,[2]; [8],5.6%
same,% inhibition female (individual replicates) R4,[2]; [8],8.9%
same,HitlevelF,[2]; [10],1
COc1cc(Cc2cnc(N)nc2N)cc(OCCCC(=O)O)c1OC [TCMDC-137359],Average inhibition male (%),[1]; [8],4.4%
same,% inhibition male (individual replicates) R1,[1]; [8],4.7%
same,% inhibition male (individual replicates) R3,[1]; [8],7.0%
same,% inhibition male (individual replicates) R4,[1]; [8],5.5%
same,HitlevelM,[1]; [11],0
same,Activity,[1]; [4],0
same,Average inhibition female (%),[2]; [8],3.8%
same,% inhibition female (individual replicates) R1,[2]; [8],8.3%
same,% inhibition female (individual replicates) R3,[2]; [8],-22.8%
same,% inhibition female (individual replicates) R4,[2]; [8],31.0%
same,HitlevelF,[2]; [12],0
CCc1nc(N)nc(N)c1-c1cccc(Cl)c1 [TCMDC-137371],Average inhibition male (%),[1]; [8],-6.5%
same,% inhibition male (individual replicates) R1,[1]; [8],19.6%
same,% inhibition male (individual replicates) R3,[1]; [8],-24.6%
same,% inhibition male (individual replicates) R4,[1]; [8],-25.1%
same,HitlevelM,[1]; [11],0
same,Activity,[1]; [4],0
same,Average inhibition female (%),[2]; [8],4.1%
same,% inhibition female (individual replicates) R1,[2]; [8],14.2%
same,% inhibition female (individual replicates) R3,[2]; [8],-6.6%
same,% inhibition female (individual replicates) R4,[2]; [8],5.2%
same,HitlevelF,[2]; [12],0
CCCc1cc(OC)c(CC2c3cc(O)c(Cl)cc3C(c3ccccc3)CN2C)cc1OC.Cl (centres unmarked) [TCMDC-137432],Average inhibition male (%),[1]; [8],3.7%
same,% inhibition male (individual replicates) R1,[1]; [8],2.4%
same,% inhibition male (individual replicates) R3,[1]; [8],-26.9%
same,% inhibition male (individual replicates) R4,[1]; [8],27.9%
same,HitlevelM,[1]; [11],0
same,Activity,[1]; [4],0
same,Average inhibition female (%),[2]; [8],7.6%
same,% inhibition female (individual replicates) R1,[2]; [8],-2.1%
same,% inhibition female (individual replicates) R3,[2]; [8],40.4%
same,% inhibition female (individual replicates) R4,[2]; [8],-8.9%
same,HitlevelF,[2]; [12],0
Cl.N=C(NCCCc1ccccc1)c1cccc(C(=N)NCCCc2ccccc2)n1 [TCMDC-137453],Average inhibition male (%),[1]; [8],15.3%
same,% inhibition male (individual replicates) R1,[1]; [8],11.4%
same,% inhibition male (individual replicates) R3,[1]; [8],-5.0%
same,% inhibition male (individual replicates) R4,[1]; [8],33.6%
same,HitlevelM,[1]; [9],0
same,Average inhibition female (%),[2]; [8],26.7%
same,% inhibition female (individual replicates) R1,[2]; [8],21.1%
same,% inhibition female (individual replicates) R3,[2]; [8],29.3%
same,% inhibition female (individual replicates) R4,[2]; [8],27.4%
same,HitlevelF,[2]; [10],0
CC(CNC(=N)c1cccc(C(=N)NCC(C)Oc2cccc(C3CCCCC3)c2)n1)Oc1cccc(C2CCCCC2)c1.Cl (centres unmarked) [TCMDC-137455],Average inhibition male (%),[1]; [5],81.3%
same,% inhibition male (individual replicates) R1,[1]; [5],90.7%
same,% inhibition male (individual replicates) R3,[1]; [5],87.0%
same,% inhibition male (individual replicates) R4,[1]; [5],101.3%
same,HitlevelM,[1]; [6],3
same,Average inhibition female (%),[2]; [5],40.6%
same,% inhibition female (individual replicates) R1,[2]; [5],53.6%
same,% inhibition female (individual replicates) R3,[2]; [5],30.8%
same,% inhibition female (individual replicates) R4,[2]; [5],44.6%
same,HitlevelF,[2]; [7],1
N=C(NCC1CC1c1ccccc1)c1cccc(C(=N)NCC2CC2c2ccccc2)n1 (centres unmarked) [TCMDC-137456],Average inhibition male (%),[1]; [5],66.3%
same,% inhibition male (individual replicates) R1,[1]; [5],75.4%
same,% inhibition male (individual replicates) R3,[1]; [5],23.0%
same,% inhibition male (individual replicates) R4,[1]; [5],81.6%
same,HitlevelM,[1]; [6],3
same,Average inhibition female (%),[2]; [5],33.5%
same,% inhibition female (individual replicates) R1,[2]; [5],27.8%
same,% inhibition female (individual replicates) R3,[2]; [5],24.0%
same,% inhibition female (individual replicates) R4,[2]; [5],33.0%
same,HitlevelF,[2]; [7],0
CN1CCN(CCCCNc2c3ccccc3nc3ccccc23)CC1 [TCMDC-137479],Average inhibition male (%),[1]; [8],37.9%
same,% inhibition male (individual replicates) R1,[1]; [8],56.6%
same,% inhibition male (individual replicates) R3,[1]; [8],-27.6%
same,% inhibition male (individual replicates) R4,[1]; [8],45.6%
same,HitlevelM,[1]; [9],2
same,Average inhibition female (%),[2]; [8],21.2%
same,% inhibition female (individual replicates) R1,[2]; [8],27.6%
same,% inhibition female (individual replicates) R3,[2]; [8],-3.0%
same,% inhibition female (individual replicates) R4,[2]; [8],19.8%
same,HitlevelF,[2]; [10],0
CCC(=C(CC)c1ccc(O)c(CNC2CCCCC2)c1)c1ccc(O)c(CNC2CCCCC2)c1.Cl [TCMDC-137481],Average inhibition male (%),[1]; [8],1.2%
same,% inhibition male (individual replicates) R1,[1]; [8],-0.3%
same,% inhibition male (individual replicates) R4,[1]; [8],0.8%
same,HitlevelM,[1]; [11],0
same,Activity,[1]; [4],0
same,Average inhibition female (%),[2]; [8],5.6%
same,% inhibition female (individual replicates) R1,[2]; [8],2.3%
same,% inhibition female (individual replicates) R3,[2]; [8],13.0%
same,% inhibition female (individual replicates) R4,[2]; [8],6.2%
same,HitlevelF,[2]; [12],0
Nc1nc(Cc2ccc(Cl)cc2)nc(Cc2ccc(Cl)cc2)n1 [TCMDC-137497],% inhibition male (individual replicates) R1,[1]; [3],-13.6%
same,% inhibition male (individual replicates) R3,[1]; [3],-49.6%
same,% inhibition male (individual replicates) R4,[1]; [3],-34.5%
same,Average inhibition male (%),[1]; [4],-26.4%
same,% inhibition female (individual replicates) R1,[2]; [3],-4.6%
same,% inhibition female (individual replicates) R3,[2]; [3],-30.4%
same,% inhibition female (individual replicates) R4,[2]; [3],8.0%
same,Average inhibition female (%),[2]; [4],-6.5%
COc1ccc(O)cc1Cc1cnc2nc(N)nc(N)c2c1C [TCMDC-137498],Average inhibition male (%),[1]; [8],-10.8%
same,% inhibition male (individual replicates) R1,[1]; [8],7.6%
same,% inhibition male (individual replicates) R3,[1]; [8],-15.7%
same,% inhibition male (individual replicates) R4,[1]; [8],-40.5%
same,HitlevelM,[1]; [11],0
same,Activity,[1]; [4],0
same,Average inhibition female (%),[2]; [8],6.7%
same,% inhibition female (individual replicates) R1,[2]; [8],14.0%
same,% inhibition female (individual replicates) R3,[2]; [8],17.6%
same,% inhibition female (individual replicates) R4,[2]; [8],8.3%
same,HitlevelF,[2]; [12],0
Clc1ccc(CNCCCCCCNCc2ccc(Cl)cc2)cc1.O=C(O)c1ccc2ccccc2c1O [TCMDC-137500],Average inhibition male (%),[1]; [8],60.2%
same,% inhibition male (individual replicates) R1,[1]; [8],69.1%
same,% inhibition male (individual replicates) R3,[1]; [8],26.6%
same,% inhibition male (individual replicates) R4,[1]; [8],76.2%
same,HitlevelM,[1]; [9],3
same,Average inhibition female (%),[2]; [8],9.2%
same,% inhibition female (individual replicates) R1,[2]; [8],13.6%
same,% inhibition female (individual replicates) R3,[2]; [8],-5.3%
same,% inhibition female (individual replicates) R4,[2]; [8],22.1%
same,HitlevelF,[2]; [10],0
